Laboratory results reported in publication PMC8318231, “Rate-of-Kill (RoK) assays to triage large compound sets for Chagas disease drug discovery: Application to GSK Chagas Box” (PLoS Neglected Tropical Diseases, 2021).

Experiments:
[1] = system: T. cruzi Tulahuen trypomastigotes; test: T. cruzi trypomastigote assay (Cell Titer-Glo viability, ATP luminescence); format: cell-based, Trypanosoma cruzi; conditions: for Trypomastigotes pIC50 48 hours: 48 hours incubation; for Trypomastigotes pIC50 48 hours / Trypomastigotes pIC50 72 hours: pIC50 = -log10 IC50 in molar units; for Trypomastigotes pIC50 72 hours: 72 hours incubation; for 48 pIC50 / 72 pIC50: trypomastigote assay; for 48 pIC50: 48 h; for 72 pIC50: 72 h
Experimental: T. cruzi Tulahuen trypomastigotes obtained from the supernatants of LLC-MK2 infected cultures in a 225 cm^2 T-Flasks harvested between days 5 and 8 of infection. Trypomastigotes (5 × 10^4 per well) in 50 μl of DMEM/ 2% FBS were dispensed into white 384 plates (Greiner) pre-stamped with 250 nl compound a single-shot final concentration of 5 μM, or in dose response. […] Cell Titer-Glo cell viability solution (Promega) was added to each well (50 μL) incubated at room temperature for 10 min and luminescence read by Envision plate reader (Perkin Elmer). This assay quantifies the amount of ATP present which is directly proportional to the number of metabolically active cells. All data were normalised (100% effect control for no cells and 0% effect control for DMSO). This assay was adapted from MacLean et al., 2018 [22].

TcCYP51 = conditions: formerly reported; cited from earlier work

Compound | Trypomastigotes pIC50 48 hours [1] | Trypomastigotes pIC50 72 hours [1] | 48 pIC50 ([1]; figure 1A) | 72 pIC50 ([1]; figure 1A) | 72 pIC50 ([1]; figure 1B) | CYP51 pIC50 (TcCYP51)
COc1ccc2ncc(F)c(NC(=O)[C@]3(O)CC[C@@H](NCc4ccc5c(c4)OCCO5)CC3)c2n1.Cl [TCMDC-143507] | 4.4 | 4.4 | 4.4 | 4.4 | 4.4 | 4.2
O=C(Cn1cnc2cc([N+](=O)[O-])ccc2c1=O)NCCc1ccc(Cl)cc1Cl [TCMDC-143519] | 5.9 | 6.1 | – | – | – | < 4
O=c1ccn(-c2ccc([N+](=O)[O-])cc2Cl)c2ccc(F)cc12 [TCMDC-143520] | < 4.3 | < 4.3 | < 4.3 | < 4.3 | < 4.3 | 4.8
COc1ccc2nccc([C@H](O)CN3CC[C@H](NC(=O)c4ccc(Br)cc4)[C@@H](O)C3)c2n1 [TCMDC-143527] | < 4.3 | < 4.3 | < 4.3 | < 4.3 | < 4.3 | 5.2
COc1ccc([N+](=O)[O-])cc1NC(=O)Nc1cccc(Cl)c1 [TCMDC-143528] | 5.6 | < 4.3 | – | – | – | < 4
O=C(Nc1cccc(Cl)c1)N1CCCCC1c1cccnc1 (stereo not drawn) [TCMDC-143529] | < 4.3 | < 4.3 | < 4.3 | < 4.3 | < 4.3 | 7.7
Cc1ccc(C)c(-n2nnnc2Sc2nc([N+](=O)[O-])nn2C)c1 [TCMDC-143530] | 5.3 | 5.4 | – | – | – | < 4
Cc1ccc(S(=O)(=O)Cn2nnnc2C(c2cccnc2)N2CCN(c3ccccc3)CC2)cc1 (stereo not drawn) [TCMDC-143539] | < 4.3 | < 4.3 | < 4.3 | < 4.3 | < 4.3 | 6.7
Cc1cc(C#N)c([N+](=O)[O-])cc1Br [TCMDC-143541] | 5.8 | 5.5 | – | – | – | 5.1
O=S(=O)(NCC(c1cccnc1)N1CCN(c2ccc(F)cc2)CC1)c1cccs1 (stereo not drawn) [TCMDC-143542] | < 4.3 | < 4.3 | < 4.3 | < 4.3 | < 4.3 | 7.4
CC(C(=O)Nc1ccc(Br)cc1)N1CCN(c2ccc([N+](=O)[O-])cc2)CC1 (stereo not drawn) [TCMDC-143545] | < 4.3 | < 4.3 | < 4.3 | < 4.3 | < 4.3 | 4.4
Cc1cc2ncn(-c3ccc([N+](=O)[O-])cc3C#N)c2cc1C [TCMDC-143546] | 5.7 | 5.9 | – | – | – | < 4
Cc1ccc2nc(N(Cc3cccnc3)C(=O)CCc3ccccc3)sc2c1 [TCMDC-143553] | 4.7 | < 4.3 | – | – | – | 7.2
O=C(Nc1cccc(F)c1)N1CCC(Oc2cccc(-c3cccnc3)c2)CC1 [TCMDC-143555] | < 4.3 | < 4.3 | < 4.3 | < 4.3 | < 4.3 | 6.8
O=[N+]([O-])c1cccc(Nc2cncc(-c3ccccc3CO)c2)c1 [TCMDC-143559] | < 4.3 | < 4.3 | < 4.3 | < 4.3 | < 4.3 | 5.5
O=C(NC(c1ccc(Cl)cc1)c1cnccn1)C1CCN(C(=O)Nc2cccc(C(F)(F)F)c2)CC1 (stereo not drawn) [TCMDC-143561] | < 4.3 | < 4.3 | < 4.3 | < 4.3 | < 4.3 | 6.9

Compound | Trypomastigotes pIC50 48 hours [1] | Trypomastigotes pIC50 72 hours [1] | 48 pIC50 ([1]; figure 1A) | 72 pIC50 ([1]; figure 1A) | 72 pIC50 ([1]; figure 1B) | CYP51 pIC50 (TcCYP51)
O=C(COc1ncnc2cc([N+](=O)[O-])ccc12)NC(=O)NC1CCCCC1 [TCMDC-143564] | 5.7 | 5.9 | – | – | – | < 4
Clc1cc(Br)ccc1OCCCCn1ccnc1.O=C(O)C(=O)O [TCMDC-143590] | 5.4 | 5.3 | – | – | – | 7.2
CC(C)Oc1ccc(C(=O)Nc2ccc(N3CCOCC3)c(Cl)c2)cc1 [TCMDC-143592] | < 4.3 | < 4.3 | < 4.3 | < 4.3 | < 4.3 | < 4
Cl.Cl.NC(=O)c1ccc(-c2cccc(OCCN3CCN(C4CCCCC4)CC3)c2)cc1 [TCMDC-143598] | < 4.3 | < 4.3 | < 4.3 | < 4.3 | < 4.3 | 4.4
CCCC(=O)N(Cc1ccccn1)c1nc2ccccc2s1 [TCMDC-143599] | < 4.3 | < 4.3 | < 4.3 | < 4.3 | < 4.3 | 7.3
Clc1ccc(CN2CCN(C3=NCCN3)CC2)cc1Cl.I.I [TCMDC-143605] | 5.6 | 5.3 | – | – | – | < 4
N#Cc1c(Oc2cccc(Cl)c2)cccc1[N+](=O)[O-] [TCMDC-143608] | 6.9 | 6.9 | 6.9 | 6.9 | 6.9 | < 4
Cc1cc(N(C)C)nc2ccc(Cc3cnc(N)nc3N)cc12 [TCMDC-143611] | 4.6 | 5.9 | – | – | – | < 4
O=C(NCC1CCCCC1)c1cnns1 [TCMDC-143612] | 4.7 | 4.9 | – | – | – | < 4
O=C1CN(C2CCCc3c(OCc4ccncc4)cccc32)C(=O)N1C1CCCCC1 (stereo not drawn) [TCMDC-143613] | < 4.3 | < 4.3 | < 4.3 | < 4.3 | < 4.3 | 7.7
CC(C)(C)C(O)(CCc1ccc(Cl)cc1)Cn1cncn1 (stereo not drawn) [TCMDC-143614] | < 4.3 | < 4.3 | < 4.3 | < 4.3 | < 4.3 | 6.9
Cc1cccc(NS(=O)(=O)c2ccc3c(c2)C(=O)c2cc(S(=O)(=O)Nc4cccc(C)c4C)ccc2-3)c1C [TCMDC-143615] | 5 | 4.8 | – | – | – | < 4
O=C(Cn1cnc([N+](=O)[O-])n1)Nc1ccc(Cl)cc1C(=O)c1ccccc1 [TCMDC-143616] | 6 | 6 | 6 | 6 | 6 | 5
N#Cc1ccc(S(=O)(=O)N2CCN(Cc3cccc(-c4ccncc4)c3)CC2)cc1 [TCMDC-143620] | 4.4 | < 4.3 | – | – | – | 7.1
Cc1cc(C)c(C#N)c(SCC(=O)c2ccc3c(c2)OCO3)n1 [TCMDC-143625] | 5.7 | 5.5 | – | – | – | < 4
CS(=O)(=O)O.Cc1cc(Br)cc(C(=O)c2c(C(C)C)c(=O)[nH]c(=O)n2Cc2ccnc(N)c2)c1 [TCMDC-143626] | < 4.3 | < 4.3 | < 4.3 | < 4.3 | < 4.3 | 7.8
